Measurements reported in patent US20250049829A1, “NOVEL T[…] TARGETING THE H-RAS ISOFORM WITH G12D MUTATION INVOLVED IN CANCER FORMATION” (ISTANBUL MEDIPOL UNIVERSITESI, priority 2021, published 2025).

Target: T1, interaction of H-RASG12D with RAF (Homo sapiens, UniProt P01112, G12D)
T1 construct: expressed in transfected cells; host or cells: HEK-293T
Assay: Active RAS pull-down (GST-Raf-RBD) and western blot in HRASG12D-overexpressing HEK-293T cells
Assay type: cell-based
Details: for active RAS levels: 293T-HRASG12D cells, pull-down with RAF, western blot
Description: The candidate molecules determined as a result of molecular dynamics studies were applied to HEK-293T cells at different concentrations in order to determine the cytotoxic and optimum doses for the cells. Optimum dose ranges were determined for each molecule. HEK-293T/HRASG12D cells were treated with Cerubidine […], one of these candidate molecules, and active RAS was examined due to the interaction of RAS protein in cells with RAF. In experiments carried out on this molecule; lysate was collected at different time points from cells treated with non-toxic concentrations of Cerubidine. Active RAS precipitation (Pull Down) and subsequent Western-blot experiments performed on these lysates were used to investigate the effect of Cerubidine molecule on active RAS at different time points for 12 hours in terms of G12D mutation specificity.
In the said study, HEK-293T cells with high expression of RAS proteins carrying the G12D mutation were used to examine the effect of candidate ligands on the interaction of H-RASG12D with RAF. First of all, an “Active Ras Pull-Down and Detection Kit (Thermo)” was provided to detect the interaction of the active RAS protein with RAF, and therefore the active RAS proteins involved in this interaction. Since the working principle of the kit is based on the precipitation of RAS proteins interacting with RAF, immunoprecipitation experiments were performed accordingly, since the use of the kit within the scope of this experiment was suitable for the target.
The isolated proteins were first treated with GTPyS and GDP, and then bound to the glutathione-containing column with GST-Raf-RBD. Then, the presence of the RAS protein was examined by western blot experiment in the samples collected by elution from the column.
Then, established 293T-HRAS^G12D cells were treated with Cerubudine, one of the candidate molecules, at different doses (non-cytotoxic), and active RAS proteins were precipitated in the presence of RAF in the lysates collected from cells, following the kit protocol validated in FIG. 5. Then, active RAS, HRAS and RAS^G12D levels were analyzed by western blot at different time points.
Here, HRASG12D overexpressed cell lines (HEK-293T/HRAS^G12D) were treated with increasing doses of Cerubudine and lysate was obtained for protein isolation at different time points (0.5 h, 1 h, 3 h, 12 h). Active RAS precipitation was performed using isolated proteins and RAS, RASG12D and HRAS protein levels were examined by Western blot. Within the scope of the results obtained, there was a decrease in active RAS protein levels depending on the dose increase, especially in the 12th hour treated samples. Cerubidine treatment in cell lines overexpressing HRASG12D reduced the interaction of active RAS protein with RAF.

With COc1cccc2c1C(=O)c1c(O)c3c(c(O)c1C2=O)C[C@@](O)(C(C)=O)C[C@@H]3O[C@H]1C[C@H](N)[C@H](O)[C@H](C)O1 [Cerubidine, cerubidine] the “reduction in G12D mutant HRAS versus wild type HRAS levels” value (5 μM and 10 μM, western blot for active RAS, HRAS and RASG12D) was “not wild type HRAS levels”, the “active RAS levels” value (5 μM) was “significant decrease” and the “active RAS levels” value (10 μM) was “significant decrease”. The “effect on active RAS levels, dose and time of strongest effect” value (10 μM, at the end of 12 hours) was “most pronounced effect”, the “interaction of active RAS protein with RAF” value (cell lines overexpressing HRASG12D) was “reduced” and the “active RAS protein levels depending on the dose increase” value (increasing doses, 12th hour treated samples, HEK-293T/HRASG12D) was “decrease”. For the same compound, the “mutant specificity of decrease in active RAS levels (G12D specific antibody)” value (membrane with G12D specific antibody) was “mutant specific”.
